Test results as given in PubChem BioAssay (NCI).
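Dose response: 5 concentrations. Exposure: 48 h. Format: 96-well plates. Endpoint: linear interpolation; highest concentration if not reached. TGI: total growth inhibition.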

Tests used:
Test in all cases: NCI anticancer screen, dose series, 48 h
NCI-H226 lung = tested on: NCI-H226 lung
OVCAR-4 ovarian = tested on: OVCAR-4 ovarian
K-562 leukemia = tested on: K-562 leukemia
MDA-MB-231 breast = tested on: MDA-MB-231 breast
COLO 205 colon = tested on: COLO 205 colon
LOX IMVI melanoma = tested on: LOX IMVI melanoma
TK-10 renal = tested on: TK-10 renal
786-0 renal = tested on: 786-0 renal
HOP-62 NSCLC = tested on: HOP-62 NSCLC
SK-OV-3 ovarian = tested on: SK-OV-3 ovarian
A498 renal = tested on: A498 renal
ACHN renal = tested on: ACHN renal
MCF7 breast = tested on: MCF7 breast
UACC-62 melanoma = tested on: UACC-62 melanoma
HCT-116 colon = tested on: HCT-116 colon
SN12C renal = tested on: SN12C renal
SF-295 CNS = tested on: SF-295 CNS
CAKI-1 renal = tested on: CAKI-1 renal
SW-620 colon = tested on: SW-620 colon
SNB-75 CNS = tested on: SNB-75 CNS
BT-549 breast = tested on: BT-549 breast
MALME-3M melanoma = tested on: MALME-3M melanoma
MDA-N = tested on: MDA-N
OVCAR-3 ovarian = tested on: OVCAR-3 ovarian
KM12 colon = tested on: KM12 colon
RPMI-8226 leukemia = tested on: RPMI-8226 leukemia
A549 NSCLC = tested on: A549 NSCLC
SR leukemia = tested on: SR leukemia
DU-145 prostate = tested on: DU-145 prostate
SF-539 CNS = tested on: SF-539 CNS
HCC-2998 colon = tested on: HCC-2998 colon
EKVX NSCLC = tested on: EKVX NSCLC
CCRF-CEM leukemia = tested on: CCRF-CEM leukemia
OVCAR-8 ovarian = tested on: OVCAR-8 ovarian
T-47D breast = tested on: T-47D breast
SK-MEL-28 melanoma = tested on: SK-MEL-28 melanoma
U251 CNS = tested on: U251 CNS
UO-31 renal = tested on: UO-31 renal
NCI-H460 lung = tested on: NCI-H460 lung
NCI-H23 lung = tested on: NCI-H23 lung
OVCAR-5 ovarian = tested on: OVCAR-5 ovarian
HT29 colon = tested on: HT29 colon
SK-MEL-5 melanoma = tested on: SK-MEL-5 melanoma
SNB-19 CNS = tested on: SNB-19 CNS
IGROV1 ovarian = tested on: IGROV1 ovarian
MDA-MB-435 = tested on: MDA-MB-435
SF-268 CNS = tested on: SF-268 CNS
HL-60(TB) leukemia = tested on: HL-60(TB) leukemia
NCI/ADR-RES ovarian = tested on: NCI/ADR-RES ovarian
HCT-15 colon = tested on: HCT-15 colon
UACC-257 melanoma = tested on: UACC-257 melanoma
MOLT-4 leukemia = tested on: MOLT-4 leukemia
RXF 393 renal = tested on: RXF 393 renal
SK-MEL-2 melanoma = tested on: SK-MEL-2 melanoma
NCI-H522 lung = tested on: NCI-H522 lung
PC-3 prostate = tested on: PC-3 prostate
M14 melanoma = tested on: M14 melanoma
HS 578T breast = tested on: HS 578T breast
HOP-92 NSCLC = tested on: HOP-92 NSCLC

Q: How did the TGI (NCI-H226 lung) turn out when `CN1CCN(c2cc3c(cc2F)c(=O)c(C(=O)O)cn3C2CC2)CC1CC#N` (stereo not drawn) was run?
A: The TGI was greater than 100 µM.

Q: And the TGI (OVCAR-4 ovarian)?
A: Its TGI is greater than 100 µM.

Q: And the TGI (K-562 leukemia)?
A: Its TGI is greater than 100 µM.

Q: What about the TGI (MDA-MB-231 breast) of the same compound?
A: Its TGI is greater than 100 µM.

Q: And the TGI (COLO 205 colon)?
A: Its TGI is greater than 100 µM.

Q: What about the TGI (LOX IMVI melanoma) of the same compound?
A: The TGI was greater than 100 µM.

Q: And the TGI (TK-10 renal)?
A: The TGI was greater than 100 µM.

Q: What about the TGI (786-0 renal) of the same compound?
A: Its TGI is greater than 100 µM.

Q: What about the TGI (HOP-62 NSCLC) of the same compound?
A: The TGI was greater than 100 µM.

Q: And the TGI (SK-OV-3 ovarian)?
A: The TGI was greater than 100 µM.

Q: What about the TGI (A498 renal) of the same compound?
A: The TGI was greater than 100 µM.

Q: What about the TGI (ACHN renal) of the same compound?
A: The TGI was greater than 100 µM.

Q: What about the TGI (MCF7 breast) of the same compound?
A: The TGI was greater than 100 µM.

Q: What about the TGI (UACC-62 melanoma) of the same compound?
A: The TGI was greater than 100 µM.

Q: And the TGI (HCT-116 colon)?
A: Its TGI is greater than 100 µM.

Q: What about the TGI (SN12C renal) of the same compound?
A: Its TGI is greater than 100 µM.

Q: And the TGI (SF-295 CNS)?
A: Its TGI is greater than 100 µM.

Q: What about the TGI (CAKI-1 renal) of the same compound?
A: The TGI was greater than 100 µM.

Q: What about the TGI (SW-620 colon) of the same compound?
A: Its TGI is greater than 100 µM.

Q: What about the TGI (SNB-75 CNS) of the same compound?
A: The TGI was greater than 100 µM.

Q: What about the TGI (BT-549 breast) of the same compound?
A: Its TGI is greater than 100 µM.

Q: And the TGI (MALME-3M melanoma)?
A: The TGI was greater than 100 µM.

Q: What about the TGI (MDA-N) of the same compound?
A: The TGI was greater than 100 µM.

Q: What about the TGI (OVCAR-3 ovarian) of the same compound?
A: Its TGI is greater than 100 µM.

Q: What about the TGI (KM12 colon) of the same compound?
A: The TGI was greater than 100 µM.

Q: What about the TGI (RPMI-8226 leukemia) of the same compound?
A: The TGI was greater than 100 µM.

Q: And the TGI (A549 NSCLC)?
A: The TGI was greater than 100 µM.

Q: What about the TGI (SR leukemia) of the same compound?
A: The TGI was greater than 100 µM.

Q: What about the TGI (DU-145 prostate) of the same compound?
A: Its TGI is greater than 100 µM.

Q: And the TGI (SF-539 CNS)?
A: The TGI was greater than 100 µM.

Q: And the TGI (HCC-2998 colon)?
A: The TGI was greater than 100 µM.

Q: And the TGI (EKVX NSCLC)?
A: Its TGI is greater than 100 µM.

Q: What about the TGI (CCRF-CEM leukemia) of the same compound?
A: The TGI was greater than 100 µM.

Q: And the TGI (OVCAR-8 ovarian)?
A: The TGI was greater than 100 µM.

Q: And the TGI (T-47D breast)?
A: The TGI was greater than 100 µM.

Q: What about the TGI (SK-MEL-28 melanoma) of the same compound?
A: The TGI was greater than 100 µM.

Q: What about the TGI (U251 CNS) of the same compound?
A: The TGI was greater than 100 µM.

Q: And the TGI (UO-31 renal)?
A: Its TGI is greater than 100 µM.

Q: What about the TGI (NCI-H460 lung) of the same compound?
A: Its TGI is greater than 100 µM.

Q: And the TGI (NCI-H23 lung)?
A: Its TGI is greater than 100 µM.

Q: And the TGI (OVCAR-5 ovarian)?
A: Its TGI is greater than 100 µM.

Q: What about the TGI (HT29 colon) of the same compound?
A: The TGI was greater than 100 µM.

Q: And the TGI (SK-MEL-5 melanoma)?
A: Its TGI is greater than 100 µM.

Q: And the TGI (SNB-19 CNS)?
A: Its TGI is greater than 100 µM.

Q: And the TGI (IGROV1 ovarian)?
A: Its TGI is greater than 100 µM.

Q: What about the TGI (MDA-MB-435) of the same compound?
A: Its TGI is greater than 100 µM.

Q: What about the TGI (SF-268 CNS) of the same compound?
A: Its TGI is greater than 100 µM.

Q: What about the TGI (HL-60(TB) leukemia) of the same compound?
A: Its TGI is greater than 100 µM.

Q: What about the TGI (NCI/ADR-RES ovarian) of the same compound?
A: The TGI was greater than 100 µM.

Q: What about the TGI (HCT-15 colon) of the same compound?
A: Its TGI is greater than 100 µM.

Q: And the TGI (UACC-257 melanoma)?
A: Its TGI is greater than 100 µM.

Q: What about the TGI (MOLT-4 leukemia) of the same compound?
A: Its TGI is greater than 100 µM.

Q: What about the TGI (RXF 393 renal) of the same compound?
A: Its TGI is greater than 100 µM.

Q: Which results are given for `COc1cc2c(cc1OC)CC(=O)c1cc(OC)c(OC)cc1/C=C\2`?
A: TGI (NCI-H226 lung): > 12.5 µM; TGI (OVCAR-4 ovarian): > 12.5 µM; TGI (K-562 leukemia): > 12.5 µM; TGI (MDA-MB-231 breast): > 12.5 µM; TGI (SK-MEL-2 melanoma): > 12.5 µM; TGI (NCI-H522 lung): > 12.5 µM; TGI (COLO 205 colon): > 12.5 µM; TGI (LOX IMVI melanoma): > 12.5 µM; TGI (TK-10 renal): > 12.5 µM; TGI (786-0 renal): > 12.5 µM; TGI (HOP-62 NSCLC): > 12.5 µM; TGI (SK-OV-3 ovarian): > 12.5 µM; TGI (A498 renal): > 12.5 µM; TGI (ACHN renal): > 12.5 µM; TGI (PC-3 prostate): > 12.5 µM; TGI (MCF7 breast): > 12.5 µM; TGI (UACC-62 melanoma): > 12.5 µM; TGI (HCT-116 colon): > 12.5 µM; TGI (SN12C renal): > 12.5 µM; TGI (SF-295 CNS): > 12.5 µM; TGI (CAKI-1 renal): > 12.5 µM; TGI (SW-620 colon): > 12.5 µM; TGI (SNB-75 CNS): > 12.5 µM; TGI (MALME-3M melanoma): > 12.5 µM; TGI (M14 melanoma): > 12.5 µM; TGI (MDA-N): 7.36 µM; TGI (OVCAR-3 ovarian): > 12.5 µM; TGI (KM12 colon): > 12.5 µM; TGI (RPMI-8226 leukemia): > 12.5 µM; TGI (A549 NSCLC): > 12.5 µM; TGI (DU-145 prostate): > 12.5 µM; TGI (SF-539 CNS): > 12.5 µM; TGI (EKVX NSCLC): > 12.5 µM; TGI (CCRF-CEM leukemia): > 12.5 µM; TGI (OVCAR-8 ovarian): > 12.5 µM; TGI (HS 578T breast): > 12.5 µM; TGI (HOP-92 NSCLC): > 12.5 µM; TGI (SK-MEL-28 melanoma): > 12.5 µM; TGI (U251 CNS): > 12.5 µM; TGI (UO-31 renal): > 12.5 µM; TGI (NCI-H460 lung): > 12.5 µM; TGI (NCI-H23 lung): > 12.5 µM; TGI (OVCAR-5 ovarian): > 12.5 µM; TGI (HT29 colon): > 12.5 µM; TGI (SK-MEL-5 melanoma): > 12.5 µM; TGI (SNB-19 CNS): > 12.5 µM; TGI (IGROV1 ovarian): > 12.5 µM; TGI (MDA-MB-435): > 12.5 µM; TGI (SF-268 CNS): > 12.5 µM; TGI (HL-60(TB) leukemia): 7.05 µM; TGI (NCI/ADR-RES ovarian): > 12.5 µM; TGI (HCT-15 colon): > 12.5 µM; TGI (UACC-257 melanoma): > 12.5 µM; TGI (MOLT-4 leukemia): > 12.5 µM; TGI (RXF 393 renal): > 12.5 µM
